Assay results: ChEMBL document CHEMBL3885861, “Open TG-GATES”

Organism: Rattus norvegicus
Experiment: Open TG-GATES - Regimen: Daily Repeat
Type: toxicity, organism-based, Sprague-Dawley
Set-up: regimen Daily Repeat, gender Male, age 6 weeks
Conditions: in vivo, po, 50 mg/kg, route gavage, dose level Middle; for APTT / Bas / Eos / Fbg / Hb / Ht / Lym / MCH / MCHC / MCV / Mono / Neu / PT / Plat / RBC / Ret / WBC: tissue Blood; for KIDNEY_L / KIDNEY_R / KIDNEY_TOTAL: tissue Kidney; for LIVER: tissue Liver; for A/G / ALP / ALT / AST / BUN / CRE / Ca / Cl / DBIL / GLC / IP / K / LDH / Na / PL / RALB / TBIL / TC / TG / TP / gamma-GTP: tissue Plasma

Compound `Nc1nc(N)c2nc(-c3ccccc3)c(N)nc2n1` has a TERMINAL_BW (72 h, time 3 day) of 241.1 g, an APTT (72 h, time 3 day) of 15.9 s and a Bas (72 h, time 3 day) of 0%. The Eos (72 h, time 3 day) was 1%, the Fbg (72 h, time 3 day) was 334.2 mg/dL and the Hb (72 h, time 3 day) was 13.9 g/dL. For the same compound, the Ht (72 h, time 3 day) was 40.9%, the Lym (72 h, time 3 day) was 74.4% and the MCH (72 h, time 3 day) was 21.2 pg. The MCHC (72 h, time 3 day) was 34.2%, the MCV (72 h, time 3 day) was 62.1 fL and the Mono (72 h, time 3 day) was 2.8%. For the same compound, the Neu (72 h, time 3 day) was 21.4%, the PT (72 h, time 3 day) was 13.8 s and the Plat (72 h, time 3 day) was 119.3 x10_4/uL. It also gave an RBC (72 h, time 3 day) of 658 x10_4/ul, a Ret (72 h, time 3 day) of 5.6% and a WBC (72 h, time 3 day) of 93.5 x10_2/uL. For the same compound, the KIDNEY_L (72 h, time 3 day) was 1.1 g, the KIDNEY_R (72 h, time 3 day) was 1.1 g and the KIDNEY_TOTAL (72 h, time 3 day) was 2.2 g. The LIVER (72 h, time 3 day) was 11.5 g, the A/G (72 h, time 3 day) was 0.9 and the ALP (72 h, time 3 day) was 1521.8 IU/L. It also gave an ALT (72 h, time 3 day) of 42.2 IU/L, an AST (72 h, time 3 day) of 65.2 IU/L and a BUN (72 h, time 3 day) of 15.2 mg/dL. For the same compound, the CRE (72 h, time 3 day) was 0.2 mg/dL, the Ca (72 h, time 3 day) was 10.9 mg/dL and the Cl (72 h, time 3 day) was 105.4 meq/L. It also gave a DBIL (72 h, time 3 day) of 0.008 mg/dL, a GLC (72 h, time 3 day) of 175 mg/dL and an IP (72 h, time 3 day) of 8.2 mg/dL. For the same compound, the K (72 h, time 3 day) was 3.9 meq/L, the LDH (72 h, time 3 day) was 56.2 IU/L and the Na (72 h, time 3 day) was 143.6 meq/L. It also gave a PL (72 h, time 3 day) of 166.2 mg/dL, an RALB (72 h, time 3 day) of 2.6 g/dL and a TBIL (72 h, time 3 day) of 0.04 mg/dL. For the same compound, the TC (72 h, time 3 day) was 85 mg/dL, the TG (72 h, time 3 day) was 126.2 mg/dL and the TP (72 h, time 3 day) was 5.5 g/dL. For the same compound, the gamma-GTP (72 h, time 3 day) was 1 IU/L, the TERMINAL_BW ([…], time 7 day) was 280.2 g and the TERMINAL_BW ([…], time 14 day) was 333.9 g. For the same compound, the TERMINAL_BW ([…], time 28 day) was 402.9 g, the APTT ([…], time 7 day) was 16.3 s and the Bas ([…], time 7 day) was 0%. For the same compound, the Eos ([…], time 7 day) was 1%, the Fbg ([…], time 7 day) was 335.4 mg/dL and the Hb ([…], time 7 day) was 13.8 g/dL. For the same compound, the Ht ([…], time 7 day) was 42.3%, the Lym ([…], time 7 day) was 77.8% and the MCH ([…], time 7 day) was 20.2 pg. The MCHC ([…], time 7 day) was 32.6%, the MCV ([…], time 7 day) was 62.1 fL and the Mono ([…], time 7 day) was 2%. For the same compound, the Neu ([…], time 7 day) was 18.6%, the PT ([…], time 7 day) was 13.9 s and the Plat ([…], time 7 day) was 134.1 x10_4/uL. The RBC ([…], time 7 day) was 680.6 x10_4/ul, the Ret ([…], time 7 day) was 5.3% and the WBC ([…], time 7 day) was 121.8 x10_2/uL. The APTT ([…], time 14 day) was 18.2 s, the Bas ([…], time 14 day) was 0.2% and the Eos ([…], time 14 day) was 1%. The Fbg ([…], time 14 day) was 312.2 mg/dL, the Hb ([…], time 14 day) was 14.5 g/dL and the Ht ([…], time 14 day) was 44.6%. It also gave a Lym ([…], time 14 day) of 80.6%, an MCH ([…], time 14 day) of 19.6 pg and an MCHC ([…], time 14 day) of 32.6%. It also gave an MCV ([…], time 14 day) of 59.9 fL, a Mono ([…], time 14 day) of 2.6% and a Neu ([…], time 14 day) of 15.4%. For the same compound, the PT ([…], time 14 day) was 12.9 s, the Plat ([…], time 14 day) was 127.2 x10_4/uL and the RBC ([…], time 14 day) was 744.2 x10_4/ul. The Ret ([…], time 14 day) was 4.2%, the WBC ([…], time 14 day) was 93 x10_2/uL and the APTT ([…], time 28 day) was 18.2 s. The Bas ([…], time 28 day) was 0.4%, the Eos ([…], time 28 day) was 1.4% and the Fbg ([…], time 28 day) was 283.2 mg/dL. The Hb ([…], time 28 day) was 15.4 g/dL, the Ht ([…], time 28 day) was 45.4% and the Lym ([…], time 28 day) was 80%. For the same compound, the MCH ([…], time 28 day) was 19.1 pg, the MCHC ([…], time 28 day) was 33.9% and the MCV ([…], time 28 day) was 56.2 fL. The Mono ([…], time 28 day) was 1.6%, the Neu ([…], time 28 day) was 16.2% and the PT ([…], time 28 day) was 13.5 s. It also gave a Plat ([…], time 28 day) of 105.5 x10_4/uL, an RBC ([…], time 28 day) of 807 x10_4/ul and a Ret ([…], time 28 day) of 2.4%. It also gave a WBC ([…], time 28 day) of 101.1 x10_2/uL, a KIDNEY_L ([…], time 7 day) of 1.2 g and a KIDNEY_R ([…], time 7 day) of 1.2 g. The KIDNEY_TOTAL ([…], time 7 day) was 2.4 g, the KIDNEY_L ([…], time 14 day) was 1.3 g and the KIDNEY_R ([…], time 14 day) was 1.3 g. The KIDNEY_TOTAL ([…], time 14 day) was 2.6 g, the KIDNEY_L ([…], time 28 day) was 1.4 g and the KIDNEY_R ([…], time 28 day) was 1.4 g. It also gave a KIDNEY_TOTAL ([…], time 28 day) of 2.8 g, an LIVER ([…], time 7 day) of 12.7 g and an LIVER ([…], time 14 day) of 14.7 g. For the same compound, the LIVER ([…], time 28 day) was 15.8 g, the A/G ([…], time 7 day) was 0.9 and the ALP ([…], time 7 day) was 1449.6 IU/L. It also gave an ALT ([…], time 7 day) of 46.8 IU/L, an AST ([…], time 7 day) of 66.6 IU/L and a BUN ([…], time 7 day) of 17.6 mg/dL. For the same compound, the CRE ([…], time 7 day) was 0.2 mg/dL, the Ca ([…], time 7 day) was 11 mg/dL and the Cl ([…], time 7 day) was 106 meq/L. For the same compound, the DBIL ([…], time 7 day) was 0.012 mg/dL, the GLC ([…], time 7 day) was 179 mg/dL and the IP ([…], time 7 day) was 7.7 mg/dL. For the same compound, the K ([…], time 7 day) was 4.3 meq/L, the LDH ([…], time 7 day) was 60 IU/L and the Na ([…], time 7 day) was 142.4 meq/L. For the same compound, the PL ([…], time 7 day) was 154.6 mg/dL, the RALB ([…], time 7 day) was 2.6 g/dL and the TBIL ([…], time 7 day) was 0.07 mg/dL. For the same compound, the TC ([…], time 7 day) was 77.2 mg/dL, the TG ([…], time 7 day) was 128.2 mg/dL and the TP ([…], time 7 day) was 5.5 g/dL. It also gave a gamma-GTP ([…], time 7 day) of 1.2 IU/L, an A/G ([…], time 14 day) of 0.9 and an ALP ([…], time 14 day) of 1311.6 IU/L. For the same compound, the ALT ([…], time 14 day) was 43.2 IU/L, the AST ([…], time 14 day) was 64.2 IU/L and the BUN ([…], time 14 day) was 18 mg/dL. The CRE ([…], time 14 day) was 0.2 mg/dL, the Ca ([…], time 14 day) was 10.6 mg/dL and the Cl ([…], time 14 day) was 104.8 meq/L. It also gave a DBIL ([…], time 14 day) of 0.014 mg/dL, a GLC ([…], time 14 day) of 191.8 mg/dL and an IP ([…], time 14 day) of 8.1 mg/dL. The K ([…], time 14 day) was 3.7 meq/L, the LDH ([…], time 14 day) was 69.6 IU/L and the Na ([…], time 14 day) was 144.4 meq/L. For the same compound, the PL ([…], time 14 day) was 149.2 mg/dL, the RALB ([…], time 14 day) was 2.7 g/dL and the TBIL ([…], time 14 day) was 0.07 mg/dL. It also gave a TC ([…], time 14 day) of 70.2 mg/dL, a TG ([…], time 14 day) of 137 mg/dL and a TP ([…], time 14 day) of 5.9 g/dL. The gamma-GTP ([…], time 14 day) was 1 IU/L, the A/G ([…], time 28 day) was 0.8 and the ALP ([…], time 28 day) was 1251 IU/L. It also gave an ALT ([…], time 28 day) of 39.2 IU/L, an AST ([…], time 28 day) of 62.4 IU/L and a BUN ([…], time 28 day) of 17.6 mg/dL. The CRE ([…], time 28 day) was 0.2 mg/dL, the Ca ([…], time 28 day) was 10.7 mg/dL and the Cl ([…], time 28 day) was 104.2 meq/L. The DBIL ([…], time 28 day) was 0.014 mg/dL, the GLC ([…], time 28 day) was 188.2 mg/dL and the IP ([…], time 28 day) was 6.7 mg/dL. It also gave a K ([…], time 28 day) of 3.8 meq/L, an LDH ([…], time 28 day) of 52.6 IU/L and a Na ([…], time 28 day) of 143.6 meq/L. For the same compound, the PL ([…], time 28 day) was 139.2 mg/dL, the RALB ([…], time 28 day) was 2.7 g/dL and the TBIL ([…], time 28 day) was 0.06 mg/dL. The TC ([…], time 28 day) was 64.6 mg/dL, the TG ([…], time 28 day) was 154 mg/dL and the TP ([…], time 28 day) was 6.1 g/dL. For the same compound, the gamma-GTP ([…], time 28 day) was 1 IU/L.
